Source: patent publication US10603319B2, “Pyrimidine derivatives and their use in treating or preventing a respiratory syncytial virus infection” (REVIRAL LIMITED, priority 2016, dated 2020)
Like-named read-outs stand apart in the source and are kept apart here.

Key:
Assay type in all cases: cell-based
[1] = target: T1, RSV A2_F (Human respiratory syncytial virus A, UniProt P03420); experiment: RSV fusion assay (luciferase reporter, HEK 293T/17 cells transfected with A2_F); details: Fusion activity IC50 μM, HEK 293T/17 cells, 24 hr
T1 construct: expressed in transfected cells; host or cells: HEK 293T/17
T1 sequence (P03420 137-574): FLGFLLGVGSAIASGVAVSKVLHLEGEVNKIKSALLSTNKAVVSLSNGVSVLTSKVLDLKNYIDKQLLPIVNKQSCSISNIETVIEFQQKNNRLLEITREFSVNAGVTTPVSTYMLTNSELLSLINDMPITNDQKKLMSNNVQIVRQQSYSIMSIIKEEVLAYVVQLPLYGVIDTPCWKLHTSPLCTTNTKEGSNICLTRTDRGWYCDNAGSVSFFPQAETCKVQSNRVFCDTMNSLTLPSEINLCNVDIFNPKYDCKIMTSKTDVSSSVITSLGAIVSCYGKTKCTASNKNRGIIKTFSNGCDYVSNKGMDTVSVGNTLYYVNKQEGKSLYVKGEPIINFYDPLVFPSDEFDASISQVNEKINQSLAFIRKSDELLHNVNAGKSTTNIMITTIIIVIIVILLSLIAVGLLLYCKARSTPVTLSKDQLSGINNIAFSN
T1 sequence (P03420 26-109): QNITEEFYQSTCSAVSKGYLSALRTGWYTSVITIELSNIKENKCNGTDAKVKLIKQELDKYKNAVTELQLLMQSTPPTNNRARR
Description: HEK 293T/17 cells were cultured in T75 culture flasks in Dulbecco's medium (DMEM) containing 10% FBS and 1× Penicillin-Streptomycin (Pen/Strep) and warmed to 37° C. prior to use. The cells were passaged by first washing briefly with 3 ml phosphate buffered saline (PBS) followed by a 4 min incubation with […] at 37° C. 7 ml media was then added to the flask and the cells dispersed via pipetting (×3) against the bottom of the flask. Two further T75 flasks were each seeded with 2×10^6 cells in 15 ml fresh media.
Cells were seeded on the T75 plates at the same density as on the 6-well plates the area of a T75 flask and one 1.75 cm radius well from a 6-well plate were compared. 7.79×2 ml of 3×10^5 cells ml^−1 was used to seed a single T75 flask.
HEK cells were removed from a T75 flask as described above. The cells were counted and diluted to 3×10^5 cells/ml in fresh media. Two T75 flasks were each seeded with 15.58 ml diluted cells.
The plasmid DNA (for pFR-Luc and pcDNA3.1_Gal4/NFκB) to be transfected into the HEK cells was first prepared in serum free media (DMEM+Pen/Strep) containing the transfection reagent Fugene 6 (Promega). Transfections were set up as follows (Luc=pFR_Luc, Gal4=pcDNA3.1+_Gal4/NFκB, A2_F=pcDNA3.1+_A2_F)
Serum free media was placed in a 1.5 ml eppendorf tube then the fugene 6 was added into the media. The tube was vortexed for 1 s before being incubated at RT for 5 min. The plasmid DNA was then added to the tube, vortexed for 1 s, then incubated at RT for 15 min
The transfection reagents were then added to the appropriate T75 flask by tipping the flask on end and adding the reagents directly to the media already in the flask. The flask was then tipped on its back so the media could be mixed thoroughly whilst not disturbing the cells before placing the flask the right way up and incubating overnight at 37° C. and 5% CO2.
Compounds were diluted (in a polypropylene round-bottomed 96 well plate) 1:3 in a twelve point dilution curve to give top [final] of either 3.3 μM, 1 μM, 500 nM 200 nM or 100 nM. The Control compound was always run at a concentration of 100 nM.
The cells were then counted and diluted to 4×10^5 cells/ml in fresh media. 50 μl of transfection population 1 cells were added to all wells of the assay plates. 100 μl diluted compound (2 rows per compound), standard curve (one row) and controls (100 nM RV (100% inhibition, four wells), DMSO (0% inhibition, eight wells)) were added to the appropriate wells. 50 μl of the diluted (4×10^5 cells/ml) transfection population 2 cells when then added to all wells.
The plates were then incubated for 24 hr at 37° C. and 5% CO2
Buffers were prepared for the luciferase assay (20 mM tricine, 10 mM MgSO4, 1 mM EDTA, 10 mM DTT) and lysis (25 mM tris-phosphate, 8 mM MgCl2, 1 mM DTT, 1% Triton X-100, 15% glycerol) and stored at −20° C.
Luminescence was measured as described:
Media was discarded into Virkon and the plates washed with 100 ul PBS per well. 20 ul/well of lysis buffer was added to each well and incubated shaking for 5 min at RT. Luciferin was added to LAAB at a dilution of 1:50 to give a working luciferin buffer. 100 μl working luciferin buffer was added to each well and luminescence was measured immediately. […]

[2] = test system: RSV A2; experiment: Plaque Reduction Assay 1 (Vero cells, immunostaining); details: two replicate values, read-out: RSV Plaque Reduction assays A2 (PRNT1) (n = 2) IC50
Description: Plaque Reduction Assay 1: Vero cells were seeded in 96-well plates in a volume of 100 μL of Optimem supplemented with 3% FCS at a concentration of 4×10^4 cells per well. After an overnight incubation at 37° C. in a humidified 5% CO2 atmosphere, the monolayer of cells should be approximately 90% confluent. Antiviral compounds were titrated in pre-warmed Serum Free (SF) Optimem in a U-bottom 96 well plate. For compounds in a DMSO solution, titration in 100% DMSO was performed first and each concentration added individually to a 2× final concentration at 4% DMSO in SF media before mixing with virus (2% final DMSO with virus). Media was then removed from cells and replaced with PBS (100 μl/well). RSV stock was thawed and diluted in SF Optimem media to 4000 PFU/mLl. An equal volume of virus was added to compounds on the titration plate. PBS was removed from cells which were then inoculated with the virus/compound solution (50 μL/well). Cells were incubated for 2 h in a 37° C.+5% CO2 humidified incubator to allow infection. Inoculum was removed and media (Optimem+1% FCS) added to cells (100 μl/well). Cells were subsequently incubated for 48 h at 37° C.+5% CO2 in a humidified incubator. Immunostaining Procedure: Media was removed from cells and the monolayer washed with PBS. Cells were fixed with ice cold 80% Acetone in PBS (100 μl/well) for 20 mins at −20° C. Fixative was removed and cells are dried for 30 mins with plates inverted. Blocking solution (5% skim milk powder in PBS-T) was added to cells (150 μL/well) and plates were incubated for 30 mins at room temperature. Blocking solution was removed and plates washed once with PBS-T. Primary antibody in blocking solution was added to plates (50 μl/well) and incubated for 1 h at 37° C. Plates were then washed 3 times with PBS-T. Secondary antibody in blocking solution was added to plates ([…]) and incubated for 1 h at 37° C. in the dark. Plates were washed as above and then dried for 10 mins. Plates were scanned on the Odyssey Imager (Li-Cor Biosciences) at a resolution of […], medium quality and level 5 intensity in the […]. Data Analysis: Images obtained were saved and plaque numbers counted with the aid of computer imaging software. EC50 values for compounds were derived from dose response curves [three variable log(inhibitor) vs response] obtained using Graphpad Prism software.

[3] = test system: RSV A2 VR-1540; experiment: Plaque Reduction Assay 2 (HEp-2 cells, virospot count); details: human respiratory syncytial virus, 24 h; RSV A2, HEp-2 cells, 1 day
Excerpt: Plaque Reduction Assay 2:
This RSV plaque reduction assay is an infectivity assay which allows quantification of the number of infectious units in a distinct foci of RSV infection. This is indicated by zones of viral antigen detected by specific antibody staining within a monolayer of otherwise healthy tissue culture cells. As each plaque originates from a single infectious virus particle an accurate calculation of the anti-viral effect can be obtained by counting plaques in the presence and absence of an anti-viral compound. HEp-2 cells (ATCC, CCL23) were passaged in flasks and seeded in 96-well plates in DMEM containing antibiotics and supplemented with 10% FBS. During inoculation and subsequent incubation, cells were cultured in DMEM containing 3% FBS. 100 plaque forming unit (PFU)/well of RSV (RSV A2 VR-1540) was mixed with ten serial dilutions of compound. Subsequently, 100 μL of the virus/compound mixtures was added to confluent HEp-2 cell monolayers. The cells and virus/compound mixtures were incubated at 35° C. in a humidified 5% CO2 incubator for 1 day.
Cells were washed twice with PBS before adding 50% v/v EtOH/MeOH, and then stored at −20° C. On the day of the staining, fixative was first removed from the plates. Plates were washed 3× with PBS. A pre-titrated amount of the primary antibody was added in 60 μL PBS/2% milk powder, and plates incubated for 1 h at rt. The plates were washed 3× with PBS/0.05% Tween20 before addition of goat anti-mouse horse radish peroxidase in 60 μL PBS/2% milk powder, and incubated for 1 h at rt. Following three wash steps with PBS/0.05% Tween20, 60 μL ready-to-use TrueBlue was added and plates were incubated at rt for 10-15 min before adding MilliQ water. Plates were washed once with water, incubated for 30-60 min and after removal of water, air-dried in the dark.
Plates were scanned and analyzed using the Immunospot S6 UV analyzer, which is equipped with BioSpot analysis software for counting immunostained plaques (virospots). Plaque counts were used to calculate % infection relative to the mean of the spot count (SC) in the virus control wells for RSV. IC50/IC90 values were calculated as 50% or 90% reduction in signal, respectively, by interpolation of inhibition curves fitted with a 4-parameter nonlinear regression with a variable slope in GraphPad 5.0 (Prism).

[4] = human respiratory syncytial virus, Vero

Row | SMILES | IC50 [1] [µM] | IC50 [2, 4] [nM] | IC50 [2] [nM] | IC50 [3] [nM]
1 | NC1CCN(c2ncc(CN3C(=O)C4(CC4)c4ccc(F)cc43)c(NCCCCO)n2)C1 (centres unmarked) [Compound 4, 1′-((2-(3-Aminopyrrolidin-1-yl)-4-((4-hydroxybutyl)amino)pyrimidin-5-yl)methyl)-6′-fluorospiro[cyclopropane-1,3′-indolin]-2′-one] | 0.452 | 5.48 | 9.3 | 43
2 | CC(C)CNc1nc(N2CCC(N)C2)ncc1CN1C(=O)C2(CC2)c2ccc(F)cc21 (centres unmarked) [Compound 5, 1′-((2-(3-Aminopyrrolidin-1-yl)-4-(isobutylamino)pyrimidin-5-yl)methyl)-6′-fluorospiro[cyclopropane-1,3′-indolin]-2′-one] | 0.655 | 165 | 215 | 998
